Experimental data reported in ChEMBL document CHEMBL3430912, “GSK Tres Cantos Anti-Kinetoplastid Screening (TCAKS) Data”.
pIC50: −log10 of the molar value.

What was measured:
Trypanosoma cruzi [1] = assay: GSK_TCAKS: pIC50 Trypanosoma cruzi viability assay using beta-GAL activity. This assay was run at single shot at 5uM compound concentration per well. The biological reagents consisted of NIH-3T3 host cells and trypomastigotes parasitic cells; both cell types were set to a 3.3 * 10^5 cells/mL dilution in assay DMEM by means of a CASY cell counter device using a 60um capillary. 6 uL of the mixture were dispensed per well (about 1 * 10^3 host-cells and 1 * 10^3 parasites) with a Multidrop Combi dispenser. […] In all wells, the percentage of DMSO never exceeded 0.5%. Plates incubated for four days at 37C, 5% CO2. The substrate used for the assay fluorescence intensity (FLINT) readout was resorufin-beta-D-galactopiranoside (Sigma-Aldrich) at 5uM per well. It was diluted in PBS supplemented with the soft detergent Igepal (Fluka).; assay type: functional, organism-based, Mus musculus; settings: Tulahuen, NIH3T3
[2] = test system: Trypanosoma brucei brucei; assay: GSK_TCAKS: pIC50 Trypanosoma brucei viability assay using luminiscence. Assay plates (1536-well) were prepared. T. brucei cultures were harvested and counted in a CASY cell counter. A parasite suspension was prepared at a final concentration of 5 * 10^4 cells/mL in complete HMI9 medium and 6uL was dispensed to all wells containing compounds using a Multidrop Combi dispenser. 6uL of HMI9 media with 0.4% DMSO were dispensed to control columns. Plates were incubated for 24 h at 37C, 5% CO2 then tempered for 10 min at room temperature. ATP content was quantified by adding 4 uL of CellTiter-Glo Reagent (Promega) according to the manufacturer's instructions. Luminescence was measured using a ViewLux.; assay type: functional, organism-based; settings: Lister 427, CASY
Trypanosoma cruzi [3] = assay: (§1) GSK_TCAKS: pIC50 H2C9 Imaging: H9c2 Host Cardiomyocytes. […] Cells were then washed once with PBS before infection. T. cruzi trypomastigotes, collected at days 5 to 8 after infection from LLC-MK2 parasite infected cultures, were allowed to swim out for 4h at 37C from a centrifuged pellet (2,500 rpm/10 min/room temperature). Trypomastigotes were then collected and counted in a CASY Cell Counter. Trypomastigotes, in supplemented DMEM, were added to H9c2 cultures in a multiplicity of infection of 1 and incubated for 18 h. Cells were washed once with PBS before incubation of the infected H9c2 monolayer with trypsin (Life-Technologies) to detach cells from the flask. Cells were counted in a CASY Cell Counter using a 150 um capillary and their density set at 5 * 10^4 cells per mL in supplemented assay DMEM. Infected H9c2 were dispensed into 384-well poly-lysine coated assay plates at 50uL per well using a Multidrop Combi dispenser. After seeding them, the plates were incubated at 37C, 5% CO2 for 72h. Cultures were then fixed and stained by addition of 50 uL of a solution containing 8% formaldehyde and 4 uM DRAQ5 DNA dye (BioStatus, UK) per well. […] Five images were collected per well for reliable statistical analysis. Automated image analysis was performed with a script developed on Acapella High Content Imaging and Analysis Software (PerkinElmer). Output: Number of H9c2 Host Cardiomyocytes nuclei to determine drug-related cytotoxicity.; assay type: functional, organism-based, Rattus norvegicus; settings: H9c2, 4 h
Leishmania donovani [4] = assay: (§2) GSK_TCAKS: pIC50 Leishmania donovani Imaging: THP-1 Host Macrophages. Assay plates (384-well) were prepared by adding 250nL of compound to each well. For single shot assay, the final compound concentration was 5 uM. […] Automated image analysis was performed with a script developed on Acapella High Content Imaging and Analysis Software (PerkinElmer). Output: THP-1 cell count were reported for each well.; assay type: functional, organism-based, Homo sapiens
Leishmania donovani [5] = assay: as §2, with “Infected” for “THP-1 Host”, “Percent of infected macrophage cells” for “THP-1 cell count”; assay type: functional, organism-based, Homo sapiens; settings: THP-1
NIH3T3 = assay: GSK_TCAKS: pIC50 NIH 3T3 cell line viability assay using luminiscence. Tissue culture surface treated assay plates (1536-well) were used. […] The 100% cells survival control was determined exposing the host-cells to a 0.5% DMSO concentration, whereas the 100% toxicity control was achieved by seeding the cells in presence of Amphotericin B at 50uM. Plates were incubated for four days at 37C, 5% CO2. The assay readout was developed by addition of 5uL of CellTiter-Glo Reagent following the manufacturer's instructions. Luminiscence was measured using a ViewLux.; assay type: functional, cell-based; settings: Mus musculus, NIH3T3, 96 h
Leishmania donovani [6] = assay: as §2, with “Amastigotes/Macrophages.” for “THP-1 Host Macrophages.”, “Average number of amastigotes per macrophage” for “THP-1”, “cell” for “cell count”; assay type: functional, organism-based, Homo sapiens; settings: THP-1
[7] = target: Sterol 14-alpha demethylase (Trypanosoma cruzi (strain CL Brener), UniProt Q7Z1V1); assay: GSK_TCAKS: pIC50 CYP51 from Trypanosoma cruzi.; assay type: functional
[8] = GSK_TCAKS: pIC50 HepG2 human cell line viability assay using luminiscence. […] Seeding density was checked to ensure that new mono-layers were not more than 50% confluent at the time of harvesting. Cell suspension was added to 500 mL of the same medium at a final density of 1.2 * 10^5 cells/mL. This cell suspension was dispensed (25 uL, 3000 cells per well) into 384-well clear-bottom plates using a Multidrop Combi dispenser. Prior to addition of the cell suspension, the screening compounds (250 nL) were pre-dispensed into the plates with an Echo liquid handler. Plates were incubated for 48 h at 37C, 5% CO2. After incubation, plates equilibrated at room temperature for 30 min before proceeding to develop the luminescent signal. The signal developer, CellTiter-Glo Reagent, was allowed to equilibrate at room temperature for 30 min and added to the plates (25uL per well) using a Multidrop Combi dispenser. Plates were left for 10 min at room temperature for stabilization and then read using a ViewLux.; assay type: toxicity, cell-based
Leishmania donovani [9] = assay: GSK_TCAKS: pIC50 Leishmania donovani viability assay using fluorescence intensity. Assay plates (1536-well) were prepared by adding 30nL per well of compound. For single shot assay, the final compound concentration was 5uM. […] Briefly, eGFP LdBOB axenic amastigotes were harvested, fixed and counted in a CASY cell counter (Roche-Applied Science). A final concentration of 1.5 * 10^5 cells per well were prepared in amastigote media containing 500 U/mL penicillin/streptomycin (Invitrogen) and 6uL was dispensed to each experimental well using a Multidrop Combi dispenser (Thermo Scientific). 6uL of assay media was dispensed to control columns used as reference for 100% compound response. Following incubation for 72 h at 37C, 5% CO2, 2 uL of resazurin was added to each well at a final concentration of 0.5 mM in phosphate buffered saline (PBS) with IGEPAL (Sigma-Aldrich), 0.05% (v/v).; assay type: functional, organism-based
Trypanosoma cruzi [10] = assay: as §1, with “Trypanosoma cruzi” for “H2C9”, “Infected Cells.” for “H9c2 Host Cardiomyocytes.”, “percentage” for “Number”, “infected cells per well as a second infection marker.” for “H9c2 Host Cardiomyocytes nuclei to determine drug-related cytotoxicity.”; assay type: functional, organism-based, Rattus norvegicus; settings: H9c2, 4 h
Trypanosoma cruzi [11] = assay: as §1, with “Trypanosoma cruzi” for “H2C9”, “Amastigotes/Cell.” for “H9c2 Host Cardiomyocytes.”, “number” for “Number”, “amastigotes per cell as infection level measurement.” for “H9c2 Host Cardiomyocytes nuclei to determine drug-related cytotoxicity.”; assay type: functional, organism-based, Rattus norvegicus; settings: H9c2, 4 h
[12] = test system: Trypanosoma brucei brucei; assay: GSK_TCAKS: pIC50 Trypanosoma brucei viability assay using fluorescence intensity. Assay plates (1536-well) were prepared by dispensing 25nL of compound solution per well using an Echo acoustic dispenser (Labcyte).; assay type: functional, organism-based; settings: Lister 427, 2 h

Sequence of Sterol 14-alpha demethylase (Q7Z1V1 whole entry): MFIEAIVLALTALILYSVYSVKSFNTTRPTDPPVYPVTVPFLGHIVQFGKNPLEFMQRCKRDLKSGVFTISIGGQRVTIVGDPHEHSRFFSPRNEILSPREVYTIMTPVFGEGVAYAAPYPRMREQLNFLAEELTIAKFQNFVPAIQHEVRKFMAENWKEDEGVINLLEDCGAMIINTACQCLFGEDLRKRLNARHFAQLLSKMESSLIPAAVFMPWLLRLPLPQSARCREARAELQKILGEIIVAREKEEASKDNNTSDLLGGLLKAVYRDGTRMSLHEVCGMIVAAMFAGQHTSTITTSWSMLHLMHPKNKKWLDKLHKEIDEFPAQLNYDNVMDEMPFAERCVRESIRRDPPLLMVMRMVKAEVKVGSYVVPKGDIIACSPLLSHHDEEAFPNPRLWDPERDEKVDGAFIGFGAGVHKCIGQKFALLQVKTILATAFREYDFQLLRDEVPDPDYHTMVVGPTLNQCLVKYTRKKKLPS

Row | Compound | pIC50 (Trypanosoma cruzi [1]) | pIC50 [2] | pIC50 (Trypanosoma cruzi [3]) | pIC50 (Leishmania donovani [4]) | pIC50 (Leishmania donovani [5]) | pIC50 (NIH3T3) | pIC50 (Leishmania donovani [6]) | pIC50 [7] | IC50 at 48 h [8] [µM] | pIC50 (Leishmania donovani [9]) | pIC50 (Trypanosoma cruzi [10]) | pIC50 (Trypanosoma cruzi [11]) | pIC50 [12]
1 | O=C(NCc1ccncc1)c1ccccc1N1CCCN(C(=O)Cc2ccc(F)c(F)c2)CC1 | 6.90 | 4.70 | < 4.30 | < 4.30 | < 4.30 | 4.80 | < 4.30 | 7.10 | > 100 | 5.60 | 7.10 | 7.10 | 5.20
2 | COc1ccc(C(C)N(C)c2ncc3c(N)nc(N)nc3n2)cc1F (stereo not given) | 7.10 | 5.30 | 4.60 | < 4.30 | 4.80 | 4.40 | 4.90 | < 4.00 | > 100 | 5.40 | 6.70 | 7.20 | 4.90
3 | O=c1ccc2ccc(F)c3c2n1C[C@H]3CN1CCC(NCc2cc3ccccc3o2)CC1 | 6.40 | 5.70 | 4.50 | 4.50 | 4.70 | 4.70 | 4.90 | 4.50 | 39.8 | 4.80 | 6.70 | 6.90 | 6.20
4 | CS(=O)(=O)N[C@H]1CC[C@@H](Oc2cc3cnccc3cc2-c2ccsc2)CC1 | 6.90 | < 4.40 | < 4.30 | 4.80 | 4.30 | 4.80 | 4.70 | 7.60 | 63.1 | 4.50 | 6.80 | 7.00 | 4.80
5 | Cc1c(C(=O)NCCCCn2ccnc2)oc2c(C)cccc12 | 6.65 | < 4.40 | < 4.30 | < 4.30 | < 4.30 | 4.50 | < 4.30 | 7.00 | 79.4 | < 4.30 | 6.30 | 6.30 | 4.70
6 | Cc1ccc2ccc(C(Nc3ccccn3)c3cccnc3)c(O)c2n1 (stereo not given) | 6.30 | 5.40 | 4.50 | < 4.30 | 4.90 | 5.00 | 5.10 | 7.30 | 20 | 6.40 | 6.70 | 6.70 | 5.30
7 | COc1ccccc1C=CCN1C[C@H]2CCC[C@@H](C1)C2(O)c1cccnc1 (stereo not given in full) | 7.30 | < 4.40 | < 4.30 | 4.40 | < 4.30 | 4.50 | 4.50 | 6.90 | > 100 | < 4.30 | 7.40 | 7.40 | < 4.40
8 | COc1ccc(C(=O)Nc2cc(C(F)(F)F)ccc2N2CCOCC2)c(OC)c1 | 6.00 | 4.60 | < 4.30 | 4.90 | 5.00 | 4.50 | 5.10 | < 4.00 | > 100 | 5.30 | 6.10 | 6.50 | 5.00
9 | COc1ccc(NS(=O)(=O)c2cc(NC(=O)Cc3ccc(C)cc3)ccc2N2CCOCC2)cc1 | 5.70 | 5.10 | < 4.30 | < 4.30 | < 4.30 | 4.60 | < 4.30 | < 4.00 | > 100 | 4.40 | 5.30 | 5.60 | 5.30
10 | NC(=O)c1ccccc1Nc1nc(NC2CCCCC2)nc2[nH]ccc12 | 6.00 | 5.00 | 4.60 | 5.00 | 4.90 | 4.60 | 4.90 | < 4.00 | 20 | 4.70 | 6.00 | 6.00 | 6.30
11 | CCCCn1nnnc1CSc1nc(C)cc(C)c1C#N | 6.50 | < 4.40 | < 4.30 | < 4.30 | 5.40 | < 4.30 | 5.50 | 4.30 | > 100 | 5.90 | 6.70 | 7.00 | < 4.40
12 | O=C(CSc1ccc(F)cc1)N[C@@H](Cc1c[nH]cn1)C(=O)NCCc1ccccc1 | 6.35 | < 4.40 | < 4.30 | < 4.30 | < 4.30 | 4.90 | < 4.30 | 7.10 | > 100 | < 4.30 | 6.30 | 6.30 | < 4.40
13 | CCOc1cnn(C)c(=O)c1Nc1ccc(C(=O)NCc2ccc(F)cc2)cc1 | 6.60 | < 4.40 | < 4.30 | 4.50 | < 4.30 | < 4.30 | < 4.30 | 5.40 | > 100 | 4.50 | 7.00 | 6.90 | < 4.40
14 | CN(Cc1nnnn1C1CCN(Cc2ccc(-n3ccnc3)cc2)CC1)c1ccc(F)cc1F | 6.50 | < 4.40 | < 4.30 | < 4.30 | < 4.30 | 4.60 | 4.80 | 6.90 | > 100 | < 4.30 | 6.50 | 6.50 | < 4.40
15 | CN(Cc1ccccc1)Cc1nnnn1C1CCN(Cc2ccc(-n3ccnc3)cc2)CC1 | 6.40 | < 4.40 | < 4.30 | 4.50 | < 4.30 | 5.40 | < 4.30 | 7.30 | > 100 | < 4.30 | 6.50 | 6.60 | < 4.40
